Measurements as given in article PMC10555500, “Evaluation of the Antiproliferative Properties of CpRu Complexes Containing N-Methylated Triazaphosphaadamantane Derivatives” (Bioinorganic Chemistry and Applications, 2023).

Legend:
[1] = system: MDA-MB-231 breast cancer cells; experiment: MTT cytotoxicity assay, MDA-MB-231 cells; format: cell-based, human; settings: for IC50: 24 h incubation, MTT, average of at least three experiments (±SD)
Description: The MDA-MB-231 and MCF-7 human breast cancer cells were purchased from ATCC. The MDA-MB-231 and MCF-7 cells were grown in Dulbecco's modified Eagles' medium (DMEM high glucose) (Capricorn Scientific) at 37°C in 5% CO2 supplemented with 10% fetal bovine serum (Capricorn Scientific). HDF cells were purchased from Merck and were grown in the fibroblast growth medium. All cells were adherent in monolayers and, upon confluence, were washed with phosphate buffer saline (PBS) and harvested by digestion with trypsin-EDTA 0.05% (v/v). The cells were suspended and transferred into new, sterile, culture flasks for maintenance or seeded in sterile test microplates for different assays. All cells were manipulated under aseptic conditions in a flow chamber.
The cells were adherent in monolayers and, upon confluence, were harvested by digestion with trypsin. The cytotoxicity of the complexes against the tumour cells was assessed using the colorimetric assay MTT […], which evaluates the metabolic activity of viable cells. This assay measures the conversion of yellow tetrazolium into purple formazan by an active mitochondrial dehydrogenase in living cells. For this purpose, the cells (10–20 × 10^3 in 200 μL of the medium) were seeded into 96-well plates and incubated in a 5% CO2 incubator at 37°C. The cells were settled for 24 h followed by the addition of a dilution series of the complexes in a medium (200 μL). The complexes were first solubilized in 100% DMSO, given a 10 mM stock solution, and then in a medium within the concentration range of 0.1–100 µM. […] After 24 h of incubation, the treatment solutions were removed by aspiration, and MTT solution (200 μL, 0.5 mg·mL^−1 in PBS) was added to each well. After 3 h at 37°C/5% CO2, the solution was removed, and the purple formazan crystals formed inside the cells were dissolved in DMSO (200 μL) by thorough shaking. The cellular viability was evaluated by measuring the absorbance at 570 nm by using a microplate spectrophotometer. The IC50 values were obtained by dose-response curves using the GraphPad Prism software (vs. 5).
The MDA-MB-231 and MCF-7 human breast cancer cells were purchased from ATCC. MDA-MB-231 and MCF-7 cells were grown in Dulbecco’s modified Eagles’s medium (DMEM high glucose) (Capricorn Scientific) at 37 °C in 5% CO2 supplemented with 10% fetal bovine serum (Capricorn Scientific). All cells were adherent in monolayers and, upon confluence, were washed with phosphate buffer saline (PBS) and harvested by digestion with Trypsin-EDTA 0.05% (v/v). The cells were suspended and transferred into new, sterile, culture flasks, for maintenance or seeded in sterile test microplates for different assays. All cells were manipulated under aseptic conditions in a flow chamber.
The cells were adherent in monolayers and, upon confluency, were harvested by digestion with trypsin. The cytotoxicity of the complexes against the tumour cells was assessed using the colorimetric assay MTT […], which evaluate the metabolic activity of viable cells. This assay measures the conversion of the yellow tetrazolium into purple formazan by an active mitochondrial dehydrogenase in living cells. For this purpose, cells (10-20 × 10^3 in 200 μL of medium) were seeded into 96-well plates and incubated in a 5% CO2 incubator at 37 °C. The cells were settled for 24 h followed by the addition of a dilution series of the complexes in medium (200 μL). The complexes were first solubilized in 100% DMSO, given a 10 mM stock solution, and then in medium within the concentration range of 0.1–100 µM. […] After 24 h of incubation, the treatment solutions were removed by aspiration, and MTT solution (200 μL, 0.5 mg·mL^-1 in PBS) was added to each well. After 3 h at 37 °C/5% CO2, the solution was removed, and the purple formazan crystals formed inside the cells were dissolved in DMSO (200 μL) by thorough shaking. […]

[2] = Stability in DMSO-d6 and DMSO-d6/D2O monitored by 31P{1H} NMR; format: physicochemical; settings: room temperature and 37°C, 48 h, 31P{1H} NMR
Excerpt: The assessment of the biological properties of the complexes requires their dissolution in a cell culture medium which is mainly constituted by water. When the complex is not hydrosoluble enough, the used protocol contemplates preliminary dissolution in DMSO before the addition to the culture medium. Thus, it is important to determine the stability and behaviour of the complexes in both DMSO and water/DMSO mixtures to check whether different species have been formed when dissolved. Dissolutions in DMSO-d6 and DMSO-d6/D2O of the new complexes 8 and 11 were monitored by ^31P{^1H} NMR over time at room temperature and 37°C. The stability studies of the rest of the complexes (1‐7, 9, 10) were published previously. All experiments were performed by a similar procedure: the complex (0.01 g) was introduced into a 5 mm NMR tube and dissolved in 0.5 mL of degassed solvent (DMSO-d6 and a 1 : 1 mixture of DMSO-d6/D2O). The solution was left at room temperature and monitored by ^31P{^1H} NMR first every 15 minutes, and later in longer periods. Stability was also monitored at incubation cell-based assay temperature (37°C).
All compounds were studied for their stability in 100% DMSO-d6 and DMSO-d6/D2O mixture by using NMR spectroscopy in common aerobic conditions. All experiments were performed by a similar procedure: the complex (0.01 g) was introduced into a 5 mm NMR tube and dissolved in 0.5 mL of degassed solvent (DMSO-d6 and a 1:1 mixture of DMSO-d6/D2O). The solution was left at room temperature and monitored by ^31P{^1H} NMR first every 15 minutes, and later in longer time periods. Stability was also monitored at incubation cell-based assays temperature (37 °C).

## [Cl][Ru+]([P]12CN3CN(CN(C3)C1)C2)[P]12CN3CN(CN(C3)C1)C2.c1cc[cH-]c1 [Compound 4, [RuClCp(PTA)2]]
[1]
  IC50: > 100 µM
[1]; MDA-MB-231, MTT, 24 h
  Cytotoxicity (in words): noncytotoxic

## C[N+]12CN3CN(C1)C[P]([Ru+]([Cl])[P](c1ccccc1)(c1ccccc1)c1ccccc1)(C3)C2.O=S(=O)([O-])C(F)(F)F.c1cc[cH-]c1 [Compound 6, [RuClCp(PPh3)(mPTA)](CF3SO3)]
[1]
  IC50: 8.3 ± 1.4 µM
[1]; MDA-MB-231, 24 h
  Fold increase in cytotoxicity with respect to complex 5: 7 fold

## C[N+]12CN3CN(CP(C3)C1)C2 [Compound 2, N-methyl-1,3,5-triaza-7-phosphaadamantane]
[1]; Homo sapiens, MDA-MB-231
  IC50: > 100 µM

## CN1CN2C[NH+](C)C[P]([Ru+2]([P](c3ccccc3)(c3ccccc3)c3ccccc3)[S](C)(C)=O)(C1)C2.O=S(=O)([O-])C(F)(F)F.O=S(=O)([O-])C(F)(F)F.c1cc[cH-]c1 [Compound 8, [RuCp(DMSO-κS)(HdmoPTA)(PPh3)](CF3SO3)2]
[2]
  Stability in DMSO-d6: stable
  Stability in DMSO-d6/D2O (1:1): stable
[1]
  IC50: 15 ± 2.2 µM

## CN1CN2C[NH+](C)C[P]([Ru+]([Cl])[P](c3ccccc3)(c3ccccc3)c3ccccc3)(C1)C2.O=S(=O)([O-])C(F)(F)F.c1cc[cH-]c1 [Compound 7, [RuClCp(HdmoPTA)(PPh3)](CF3SO3)]
[1]
  IC50: 2.5 ± 1.1 µM
[1]; MDA-MB-231, 24 h
  Fold increase in antiproliferative activity with respect to complex 6: 4 fold
